Data taken from patent publication US20220315572A1, “SUBSTITUTED CYANOPYRROLIDINES WITH ACTIVITY AS USP30 INHIBITORS” (MISSION THERAPEUTICS LIMITED, priority 2019, published 2022).
Like-named read-outs stand apart in the source and are kept apart here.

How the values were obtained:
[1] = target: T1, USP30 (Homo sapiens, UniProt Q70CQ3); test: USP30 biochemical IC50 assay (fluorescence polarisation)
T1 construct: purchased Boston Biochem E582
T1 sequence (Q70CQ3 57-517 limits assumed): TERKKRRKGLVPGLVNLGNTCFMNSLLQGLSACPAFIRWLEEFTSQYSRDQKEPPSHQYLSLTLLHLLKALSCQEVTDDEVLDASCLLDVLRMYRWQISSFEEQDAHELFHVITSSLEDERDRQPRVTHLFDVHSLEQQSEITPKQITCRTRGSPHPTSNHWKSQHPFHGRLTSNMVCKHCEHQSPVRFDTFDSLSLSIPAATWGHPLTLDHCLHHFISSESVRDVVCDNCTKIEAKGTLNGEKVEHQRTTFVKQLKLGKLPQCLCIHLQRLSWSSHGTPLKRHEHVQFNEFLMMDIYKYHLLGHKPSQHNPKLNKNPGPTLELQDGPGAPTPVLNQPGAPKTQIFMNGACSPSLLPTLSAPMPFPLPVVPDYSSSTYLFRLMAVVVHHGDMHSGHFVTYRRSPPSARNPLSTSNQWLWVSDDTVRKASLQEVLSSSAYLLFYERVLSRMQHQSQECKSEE
Experimental: Dilution plates were prepared at 21 times the final concentration (2100 μM for a final concentration of 100 μM) in 50% DMSO in a 96-well polypropylene V-bottom plate (Greiner #651201). A typical 8-point dilution series would be 100, 30, 10, 3, 1, 0.3, 0.1, 0.03 μM final. Reactions were performed in duplicate in black 384 well plates (small volume, Greiner 784076) in a final reaction volume of 21 μl. Either […] of 50% DMSO or diluted compound was added to the plate. USP30 (Boston Biochem #E582) was diluted in reaction buffer (40 mM Tris, pH 7.5, 0.005% Tween 20, 0.5 mg/ml BSA, 5 mM beta-mercaptoethanol) to achieve a final assay concentration of 4 nM, and 10 μl of diluted USP30 was added to the compound. Enzyme and compound were incubated for 30 min at room temp. Reactions were initiated by the addition of 50 nM of TAMRA labelled peptide linked to ubiquitin via an iso-peptide bond as fluorescence polarisation substrate. Reactions were read immediately after addition of substrate and following a 2-hour incubation at room temperature. Readings were performed on a Pherastar Plus (BMG Labtech). λ Excitation 540 nm; λ Emission 590 nm.

[2] = target: T2, UCHL1 (Homo sapiens, UniProt P09936); test: DUB biochemical IC50 assay, UCHL1
T2 sequence (P09936 1-223): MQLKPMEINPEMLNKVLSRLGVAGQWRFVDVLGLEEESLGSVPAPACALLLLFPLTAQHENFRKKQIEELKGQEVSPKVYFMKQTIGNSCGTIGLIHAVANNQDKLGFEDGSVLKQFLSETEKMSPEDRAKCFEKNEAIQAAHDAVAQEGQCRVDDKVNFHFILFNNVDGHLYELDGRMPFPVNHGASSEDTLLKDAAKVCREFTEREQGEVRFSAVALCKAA

[3] = target: Cathepsin B (Homo sapiens, UniProt P07858); test: Cathepsin IC50, cathepsin B; format: biochemical
[4] = target: T3, Cathepsin K (Homo sapiens, UniProt P43235); test: Cathepsin IC50, cathepsin K; format: biochemical
T3 sequence (P43235 115-329): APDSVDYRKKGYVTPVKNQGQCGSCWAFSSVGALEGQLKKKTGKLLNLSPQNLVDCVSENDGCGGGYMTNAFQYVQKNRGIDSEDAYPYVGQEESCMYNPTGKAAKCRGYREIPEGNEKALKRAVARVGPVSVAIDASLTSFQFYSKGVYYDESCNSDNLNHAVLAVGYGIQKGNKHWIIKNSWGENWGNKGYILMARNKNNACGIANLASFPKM

[5] = target: Cathepsin L (Homo sapiens, UniProt P07711); test: Cathepsin IC50, cathepsin L; format: biochemical
Chain of Cathepsin L (P07711 114-333, species assumed): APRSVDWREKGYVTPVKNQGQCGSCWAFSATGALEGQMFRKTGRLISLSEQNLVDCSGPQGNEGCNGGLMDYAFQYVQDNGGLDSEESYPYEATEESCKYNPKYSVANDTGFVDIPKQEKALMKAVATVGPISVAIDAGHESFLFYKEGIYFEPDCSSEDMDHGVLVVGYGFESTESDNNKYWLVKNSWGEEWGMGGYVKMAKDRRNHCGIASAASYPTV

[6] = target: Cathepsin S (Homo sapiens, UniProt P25774); test: Cathepsin IC50, cathepsin S; format: biochemical
Chain of Cathepsin S (P25774 115-331, species assumed): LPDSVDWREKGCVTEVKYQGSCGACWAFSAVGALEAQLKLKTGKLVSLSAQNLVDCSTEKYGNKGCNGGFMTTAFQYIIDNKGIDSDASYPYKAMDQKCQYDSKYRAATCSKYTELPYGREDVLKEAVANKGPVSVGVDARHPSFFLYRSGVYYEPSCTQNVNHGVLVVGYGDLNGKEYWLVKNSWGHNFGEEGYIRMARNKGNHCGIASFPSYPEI

[7] = target: Cathepsin V (Homo sapiens, UniProt O60911); test: Cathepsin IC50, cathepsin V; format: biochemical
Chain of Cathepsin V (O60911 114-334, species assumed): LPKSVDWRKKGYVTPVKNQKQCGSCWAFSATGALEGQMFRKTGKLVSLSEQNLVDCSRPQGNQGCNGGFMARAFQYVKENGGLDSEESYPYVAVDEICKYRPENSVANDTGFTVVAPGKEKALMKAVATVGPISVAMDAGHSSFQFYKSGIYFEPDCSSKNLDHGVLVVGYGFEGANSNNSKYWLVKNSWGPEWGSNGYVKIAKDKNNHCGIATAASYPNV

[8] = test system: Cathepsins B, K, L, S, V; test: Cathepsin IC50, range over B, K, L, S, V; format: biochemical; conditions: for fold more potent against USP30 than against the cathepsins, minimum: lowest of cathepsins B, S and V; for fold more potent against USP30 than against the cathepsins, minimum / Selectivity preference for USP30 v cathepsins: K, L; for Selectivity preference for USP30 v cathepsins: range over cathepsins B, S; for IC50: range over the five cathepsins
[9] = test system: USP2, USP10, USP16, USP21, USP22, USP25, USP28, USP35, USP46; test: DUB biochemical IC50 assays, nine DUBs; conditions: for DUB selectivity preference for USP30 v 9 DUBs / IC50: range over the nine DUBs; for IC50: Ref. Ex. C excl. USP22, Ref. Ex. D excl. USP2, 46; for fold more potent against USP30 than against the nine DUBs, minimum: lowest of USP2, USP10, USP16, USP21, USP22, USP25, USP28, USP35, USP46
[10] = target: T4, Endogenous USP30 (Homo sapiens, UniProt Q70CQ3); test: USP30 endogenous cellular target engagement western blot assay (Cell TE WB); format: cell-based; conditions: Hela cells stably overexpressing YFP-Parkin, 1 hour
T4 construct: USP30 endogenous cellular target engagement western blot (WB) assay; endogenous in cells; host or cells: HeLa stably overexpressing YFP-Parkin
T4 sequence (Q70CQ3 1-517): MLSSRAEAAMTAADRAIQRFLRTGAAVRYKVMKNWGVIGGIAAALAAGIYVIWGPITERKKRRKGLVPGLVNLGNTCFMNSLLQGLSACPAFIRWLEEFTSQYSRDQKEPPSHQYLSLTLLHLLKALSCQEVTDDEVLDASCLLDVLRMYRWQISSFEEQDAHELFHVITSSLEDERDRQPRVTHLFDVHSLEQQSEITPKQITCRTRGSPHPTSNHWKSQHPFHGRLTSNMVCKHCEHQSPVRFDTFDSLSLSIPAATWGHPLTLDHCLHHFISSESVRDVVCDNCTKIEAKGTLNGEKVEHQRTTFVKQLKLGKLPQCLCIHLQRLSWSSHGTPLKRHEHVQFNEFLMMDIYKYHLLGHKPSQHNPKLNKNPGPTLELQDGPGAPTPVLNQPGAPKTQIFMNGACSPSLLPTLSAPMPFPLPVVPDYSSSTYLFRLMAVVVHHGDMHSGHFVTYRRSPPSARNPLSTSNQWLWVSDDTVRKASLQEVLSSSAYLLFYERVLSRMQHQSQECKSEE
Experimental: Hela cells stably overexpressing YFP-Parkin were seeded into 6 well dishes. Once adhered, cells were treated with appropriate concentrations of test compounds or vehicle control for 1 hour at 37° C., 5% CO2. Whole cell lysates were prepared by scraping the cells into cold PBS, centrifuging and lysing in lysis buffer (50 mM Tris-base, pH 7.5, 50 mM NaCl, 1% NP-40/Igepal CA-630, 2 mM MgCl2, 10% Glycerol, 5 mM beta-mercaptoethanol, cOmplete mini tablets EDTA free (Roche), PhosStop tablets (Roche)) for 10 mins. The equivalent of 20 μg of protein from the cleared cell lysate was incubated with a final conc of 2.5 μM HA-Ahx-Ahx-Ub-VME probe at room temperature. The reaction was stopped by addition of 5×SDS sample loading buffer and proteins separated by SDS PAGE and western blotting. USP30 was detected using an anti-USP30 Sheep S746D antibody (MRC PPU Reagents and Services) and a rabbit anti sheep secondary IgG (H+L) horseradish peroxidase conjugated (Thermo #31480) and visualised using ECL reagent (GE #RPN2109) on a GE LAS4000 imager. Target engagement was measured by quantitation of the bands corresponding to USP30 and USP30 bound to the Ub-VME probe and expression of this proportion compared to vehicle treated control.
Cell TE WB: USP30 endogenous cellular target engagement western blot (WB) assay. Assays the activity of compounds against USP30 in cells using an irreversible activity probe to monitor USP30 activity.

[11] = Reference Examples, read-out: USP30 IC50

Row | SMILES | IC50 [1, 11] [µM] | DUB selectivity preference for USP30 v UCHL1 [2] | IC50 [2] [µM] | fold more potent against USP30 than UCHL1 [2] [fold] | IC50 [3] [µM] | IC50 [4] [µM] | IC50 [5] [µM] | IC50 [6] [µM] | IC50 [7] [µM] | fold more potent against USP30 than against the cathepsins, minimum [8] [fold] | Selectivity preference for USP30 v cathepsins [8] | IC50 [8] [µM] | IC50 ([1]; USP30 biochemical IC50 assay, exemplary compounds, read-out: IC50) [µM] | DUB selectivity preference for USP30 v 9 DUBs [9] | IC50 [9] [µM] | EC50 [10] [nM] | IC50 ([1]; read-out: DUB IC50 (μM) USP30) [µM] | fold more potent against USP30 than against the nine DUBs, minimum [9] [fold]
1 | N#CN1CCC(C(=O)Nc2nnc(-c3ccccc3)s2)C1 (stereo not drawn) [F, reference compound] | 0.7 | 4.6 | 3.2 | 4.6 | 9.8 | 0.86 | 0.24 | 2.1 | 0.82 | 0.34 | 0.34-14 | 0.24 to 9.8 |  |  |  |  |  | 
2 | COC[C@@H]1C[C@@H](NC(=O)c2nnc(-c3cccc(C#N)c3)o2)CN1C#N [Example 2, N-((3R,5S)-1-Cyano-5-(methoxymethyl)pyrrolidin-3-yl)-5-(3-cyanophenyl)-1,3,4-oxadiazole-2-carboxamide] |  | 8100 | > 300 |  | > 300 | 113 | 32.8 | > 300 | > 300 |  | 880-8100 | 32.8 to 300 | 0.037 | 186-8100 | ≥ 6.9 | 89 |  | 
3 | CC1CC(C(=O)Nc2ncc(-c3ccccc3)s2)CN1C#N (stereo not drawn) [G, reference compound] | 4.4 |  | 6.8 | 1.5 |  |  |  |  |  |  |  |  |  |  |  |  | 4.4 | 
4 | C[C@H]1CN(C#N)C[C@@H]1NC(=O)c1cnc(-c2ccccc2)s1 [C, reference compound] | 0.026 |  |  |  | 4.8 | 2.4 | 1.5 | 5.9 | 4 | 58 | 58-227 | 1.5 to 5.9 |  | 0.96-342 | 0.025 to 8.9 |  |  | 0.96
5 | N#CN1CC[C@H](C(=O)Nc2ncc(-c3ccccc3)s2)C1 [E, reference compound] | 0.31 |  | 0.25 | 0.8 | 5.3 | 2.7 | 1 |  |  | 3.2 | 3.2-17 | 1 to 5.3 |  |  |  |  | 0.31 | 
6 | N#CN1CCC(NC(=O)c2cc(-c3cccc(Cl)c3)no2)C1 (stereo not drawn) [B, reference compound] | 0.044 |  |  |  | 2.9 | 1.1 | 0.79 | 2.3 | 4.2 | 18 | 18-95 | 0.79 to 4.2 |  | 8-232 | 0.35 to 10.2 |  |  | 8
7 | N#Cc1cccc(-c2ccn3c(C(=O)N[C@@H]4CCN(C#N)C4)cnc3c2)c1 [D] | 0.041 |  |  |  |  |  | 2.3 | 6.9 | 3 | 56 | 56-168 | 2.3 to 6.9 |  | 4.6-124 | 0.19 to 5.1 |  |  | 4.6
8 | COc1cccc(-c2cc(C(=O)N[C@@H]3CCN(C#N)C3)on2)c1 [A, reference compound] | 0.07 |  |  |  | 4.5 | 0.79 | 2.8 | 8.8 | 5.8 |  | 11-126 | 0.79 to 8.8 |  | 2.7-141 | 0.19 to 9.9 |  |  | 2.7
